Test results reported in patent publication US5922713A, “Inhibition of nitric oxide synthase” (priority 1997, dated 1999).

Columns and labels:
Sprague-Dawley rats = assay: in vivo toxicity test, intraperitoneal injection in Sprague-Dawley rats; settings: 10 mg, rats 240-250 g body weight
Procedure: (§1) The therapeutic use of C1' aminobiopterin is facilitated by its low toxicity, both in vitro and in vivo. A useful in vitro toxicity screen which is predictive of in vivo response was to use cultured 3T3 murine fibroblasts. […] In an in vivo test, intraperitoneal injection of a solution containing 10 mg of tetrahydroaminobiopterin (I) dihydrochloride caused no toxicity in Sprague-Dawley rats (240-250 g body weight).

[1] = system: cultivated porcine endothelial cells; assay: NOS inhibition in cultivated porcine endothelial cells; type: cell-based; settings: Sus scrofa, Endothelial cell, read-out: IC50, inhibitory effect on NOS
murine inducible NOS = murine inducible NOS (Mus musculus, UniProt P29477); assay: NO synthase activity, formation of tritiated citrulline from tritiated L-arginine (murine inducible); type: biochemical; settings: 10 μM tetrahydrobiopterin, read-out: IC50 (50% inhibitory concentration), inhibition of stimulation of NOSs by tetrahydrobiopterin
Procedure: (§2) It has been discovered that C1' tetrahydroaminobiopterin inhibits the stimulation of NOSs by 10 μM tetrahydrobiopterin with an IC50 (50% inhibitory concentration) of 1 μM (rat neuronal NOS), or 7 μM (murine inducible NOS) as assayed by formation of tritiated citrulline from tritiated L-arginine according to Mayer, et al., "Molecular mechanisms of inhibition of porcine brain nitric oxide synthase by the antinociceptive drug 7-nitro-indazole," Neuropharmacology, 33:1253-1259 (1994), the teachings of which are incorporated herein by reference. In tissue culture tetrahydroaminobiopterin (I) reduced the formation of nitrites (a breakdown product of nitric oxide) when formation was triggered in murine NIH-3T3 by treatment with a combination of murine interferon-y (250 U/ml) and lipopolysaccharide (1 μg/ml) ("LPS"). […] In one embodiment, rat liver phenylalanine-4-hydroxylase was inhibited by 1 mM tetrahydroaminobiopterin only 30% irrespective of the tetrahydroaminobiopterin concentrations used (3-300 μM). IC50 of tetrahydroaminobiopterin (I) for sheep liver dihydropterin reductase is 20 μM, again irrespective of the tetrahydroaminobiopterin concentrations used.

murine NIH-3T3 = assay: formation of nitrites triggered in murine NIH-3T3 by interferon-γ (250 U/ml) and LPS; type: cell-based
Procedure: as §2

murine 3T3 fibroblasts = assay: nitrite formation by interferon-γ/LPS stimulated murine 3T3 fibroblasts (Example 2); type: cell-based; settings: for inhibition at 7.8 µM: conc. 7.8 μM; for inhibition at 7.8 µM / inhibition at 15.6 µM / inhibition at 31.2 µM / inhibition at 62.5 µM: 48 hours; for inhibition at 15.6 µM: conc. 15.6 μM; for inhibition at 31.2 µM: conc. 31.2 μM; for inhibition at 62.5 µM: conc. 62.5 μM
Procedure: Nitric oxide synthase is induced in 3T3 fibroblasts from mice (1×10^5 /ml) by a mixture of LPS (055:b5 from E. coli.), 1 μg/ml) and murine interferon-γ (50 U/ml). The cells were cultured with and without inhibitors for 48 hours, and nitrite was determined in culture supernatants as a measure of NO formation by the cells. The ratio of nitrite to nitrate, the second product of decomposition of NO, remains constant by treatment with the inhibitor. Nitrite determination was carried out using the Greiss Ilosvay's reagent, which was mixed with an equal volume of culture supernatant and the amount of dye formed was measured by UV absorption at 550 nm in a microplate reader.

[2] = biological target: rat neuronal nitric oxide synthase (Rattus norvegicus, UniProt P29476); assay: binding of tritiated tetrahydroaminobiopterin (Klatt et al.), affinity for rat neuronal nitric oxide synthase; settings: vs naturally occurring cofactor tetrahydrobiopterin
Chain of rat neuronal nitric oxide synthase (P29476 whole entry): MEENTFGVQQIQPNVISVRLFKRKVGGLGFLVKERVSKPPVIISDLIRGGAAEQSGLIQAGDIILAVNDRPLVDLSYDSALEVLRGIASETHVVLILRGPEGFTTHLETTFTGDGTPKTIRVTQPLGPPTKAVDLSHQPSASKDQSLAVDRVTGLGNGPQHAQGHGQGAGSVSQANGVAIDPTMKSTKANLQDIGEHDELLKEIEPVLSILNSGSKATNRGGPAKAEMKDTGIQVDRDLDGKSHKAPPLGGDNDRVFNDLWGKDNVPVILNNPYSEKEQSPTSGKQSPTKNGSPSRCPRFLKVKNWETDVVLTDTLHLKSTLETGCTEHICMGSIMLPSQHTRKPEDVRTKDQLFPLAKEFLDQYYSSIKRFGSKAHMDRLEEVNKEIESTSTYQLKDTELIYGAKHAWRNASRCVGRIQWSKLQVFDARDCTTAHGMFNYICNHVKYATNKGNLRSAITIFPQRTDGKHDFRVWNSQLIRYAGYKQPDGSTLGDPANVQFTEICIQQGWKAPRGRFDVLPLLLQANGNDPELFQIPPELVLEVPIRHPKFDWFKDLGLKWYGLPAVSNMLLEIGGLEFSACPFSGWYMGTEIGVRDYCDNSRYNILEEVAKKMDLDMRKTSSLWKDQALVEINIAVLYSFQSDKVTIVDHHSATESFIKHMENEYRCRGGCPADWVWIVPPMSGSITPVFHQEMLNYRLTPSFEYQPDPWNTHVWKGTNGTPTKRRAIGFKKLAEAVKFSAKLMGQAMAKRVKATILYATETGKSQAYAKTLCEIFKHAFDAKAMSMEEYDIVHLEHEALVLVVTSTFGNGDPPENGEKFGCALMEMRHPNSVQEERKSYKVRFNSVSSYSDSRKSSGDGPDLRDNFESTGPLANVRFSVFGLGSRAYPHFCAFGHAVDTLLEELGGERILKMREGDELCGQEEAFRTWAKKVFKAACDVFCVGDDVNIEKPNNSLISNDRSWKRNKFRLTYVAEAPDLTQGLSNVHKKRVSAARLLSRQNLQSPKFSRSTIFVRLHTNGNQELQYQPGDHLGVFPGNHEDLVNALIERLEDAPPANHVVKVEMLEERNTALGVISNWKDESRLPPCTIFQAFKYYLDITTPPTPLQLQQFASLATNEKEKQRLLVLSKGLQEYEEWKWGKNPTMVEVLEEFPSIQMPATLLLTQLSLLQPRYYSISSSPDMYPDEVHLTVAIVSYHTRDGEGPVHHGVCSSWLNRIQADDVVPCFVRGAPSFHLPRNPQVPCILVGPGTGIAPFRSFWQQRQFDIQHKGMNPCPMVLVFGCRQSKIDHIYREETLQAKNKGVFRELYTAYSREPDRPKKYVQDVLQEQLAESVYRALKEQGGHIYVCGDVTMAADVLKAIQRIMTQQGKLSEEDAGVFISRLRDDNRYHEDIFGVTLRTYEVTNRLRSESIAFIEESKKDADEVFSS
Procedure: These determinations are assayed with binding of tritiated tetrahydroaminobiopterin according to the method of Klatt et al., "The pteridine binding site of brain nitric oxide synthase," J.Biol.Chem., 269:13861-13866 (1994), the teachings of which are incorporated herein by reference.

NOSs = assay: specificity for NOSs; type: biochemical
Procedure: as §2

[3] = biological target: inducible murine nitric oxide synthase (Mus musculus, UniProt P29477); assay: binding of tritiated tetrahydroaminobiopterin (Klatt et al.), affinity for inducible murine nitric oxide synthase; settings: vs naturally occurring cofactor tetrahydrobiopterin
[4] = biological target: T1, recombinant rat neuronal NO synthase (Rattus norvegicus, UniProt P29476); assay: NO synthase activity, formation of tritiated citrulline from tritiated L-arginine (rat neuronal); type: biochemical
T1 construct: made in house
Procedure: as §2
NO synthase activity: NO synthase activity was measured as the formation of [2,3,4,5-^3 H]citrulline from L-[2,3,4,5-^3 H]arginine. This was conducted by the method of Mayer, et al., "Molecular mechanisms of inhibition of porcine brain nitric oxide synthase by the antinociceptive drug 7-nitro-indazole," Neuropharmacology, 33:1253-1259 (1994). Incubation mixtures (0.1 ml) contain 50 mM triethanolamine/HCl buffer, pH 7.0, 0.1 μg purified recombinant rat neuronal NO synthase (tetrahydrobiopterin-free, prepared according to the teachings of List et al., Biochem. J., 315:57-63 (1996)), the teachings of which are incorporated herein by reference., 0.1 mM L-2,3,4,5-^3 H]arginine (approx 6000 counts per minute). 0.5 mM CaCl2, 10 μg/ml calmodulin, 0.2 mM NADPH ([…], reduced form), 10 μM 6R-tetrahydrobiopterin, 0-1000 μM NO synthase inhibitor, 5 μM flavin adenine dinucleotide("FAD"), 5 μM flavin mononucleotide ("FMN"), and 0.2 mM 3-[3-chloramidopropyl)dimethylamonio]-1-propanesulfonate ("CHAPS"). After incubation for 10 minutes at 37° C., the reaction is stopped by the addition of 0.9 ml 20 mM sodium acetate buffer, pH 5.5, containing 1 mM L-citrulline. The mixture is then applied to ion exchange resin columns (Dowex AG50W-XB, Dow Chemical, Midland, Mich.), the eluate and 1 ml water for washing the column are collected. Next, 7 ml scintillation cocktail are added and the radioactivity is determined. The radioactivity detected by scintillation corresponds to the amount of L-citrulline formed in the NO synthase reaction.

3T3 murine fibroblasts = assay: in vitro toxicity screen in cultured 3T3 murine fibroblasts; type: cell-based; settings: 250 μM, up to 48 hours
Procedure: as §1

[5] = system: rat liver phenylalanine-4-hydroxylase; assay: inhibition of rat liver phenylalanine-4-hydroxylase; type: biochemical; settings: 1 mM; irrespective of the tetrahydroaminobiopterin concentrations used (3-300 μM)
Procedure: as §2

[6] = conc. 0.01 μM, 10 μM 6R-tetrahydrobiopterin
[7] = conc. 0.1 μM, 10 μM 6R-tetrahydrobiopterin
[8] = conc. 1.0 μM, 10 μM 6R-tetrahydrobiopterin
[9] = conc. 3.0 μM, 10 μM 6R-tetrahydrobiopterin
[10] = conc. 10 μM, 10 μM 6R-tetrahydrobiopterin
[11] = conc. 30 μM, 10 μM 6R-tetrahydrobiopterin
[12] = conc. 100 μM, 10 μM 6R-tetrahydrobiopterin
[13] = conc. 1000 μM, 10 μM 6R-tetrahydrobiopterin

| NO synthase activity [4, 6] | NO synthase activity [4, 7] | NO synthase activity [4, 8] | NO synthase activity [4, 10] | NO synthase activity [4, 12] | NO synthase activity [4, 13] | inhibition at 100 µM [4, 12] | SMILES | inhibition at 7.8 µM (murine 3T3 fibroblasts; Mus musculus, Fibroblast) | inhibition at 15.6 µM (murine 3T3 fibroblasts; Mus musculus, Fibroblast) | inhibition at 31.2 µM (murine 3T3 fibroblasts; Mus musculus, Fibroblast) | inhibition at 62.5 µM (murine 3T3 fibroblasts; Mus musculus, Fibroblast) | affinity for nitric oxide synthase relative to tetrahydrobiopterin (fold higher) [2] | affinity for nitric oxide synthase relative to tetrahydrobiopterin (fold higher) [3] | NO synthase activity [4, 9] | inhibition at 3 µM [4, 9] | NO synthase activity [4, 11] | inhibition at 30 µM [4, 11] | also measured |
| --- | --- | --- | --- | --- | --- | --- | --- | --- | --- | --- | --- | --- | --- | --- | --- | --- | --- | --- |
| – | – | – | – | – | – | – | C[C@H](O)[C@H](O)C1CNc2nc(N)nc(N)c2N1 (stereo partly drawn) | – | – | – | – | – | – | – | – | – | – | toxicity in vivo (Sprague-Dawley rats): no toxicity |
| 325 nmol/mg/min | 318 nmol/mg/min | 306 nmol/mg/min | 316 nmol/mg/min | 274 nmol/mg/min | 136 nmol/mg/min | 18% | Nc1nc(N)c2c(n1)NCC(CO)N2 (stereo not drawn) [(III), 2,4-diamino-5,6,7,8-tetrahydro-6-hydroxymethyl pteridine, reference compound] | 0% | 8% | 16% | 50% | – | – | 304 nmol/mg/min | 9% | 319 nmol/mg/min | 4% | activity in words (murine 3T3 fibroblasts; 7.5 μM): no activity; inhibition at 0.01 µM [4, 6]: 3%; inhibition at 0.1 µM [4, 7]: 5%; inhibition at 1 µM [4, 8]: 8%; inhibition at 10 µM [4, 10]: 5%; inhibition at 1000 µM [4, 13]: 60% |
| 294 nmol/mg/min | 283 nmol/mg/min | 242 nmol/mg/min | 110 nmol/mg/min | 48 nmol/mg/min | 25 nmol/mg/min | 82% | C[C@H](O)[C@H](O)C1=Nc2c(N)nc(N)nc2NC1 [(IV), 2,4-diamino-7,8-dihydro-6-(L-erythro-1,2-dihydroxylpropyl)pteridine] | – | – | – | – | about 20 -fold | about 2.5 -fold | – | – | – | – | – |

| SMILES | NO synthase activity [4, 6] | NO synthase activity [4, 7] | NO synthase activity [4, 8] | NO synthase activity [4, 10] | NO synthase activity [4, 12] | NO synthase activity [4, 13] | inhibition at 100 µM [4, 12] | inhibition at 7.8 µM (murine 3T3 fibroblasts; Mus musculus, Fibroblast) | inhibition at 15.6 µM (murine 3T3 fibroblasts; Mus musculus, Fibroblast) | inhibition at 31.2 µM (murine 3T3 fibroblasts; Mus musculus, Fibroblast) | inhibition at 62.5 µM (murine 3T3 fibroblasts; Mus musculus, Fibroblast) | affinity for nitric oxide synthase relative to tetrahydrobiopterin (fold higher) [2] | affinity for nitric oxide synthase relative to tetrahydrobiopterin (fold higher) [3] | NO synthase activity [4, 9] | inhibition at 3 µM [4, 9] | NO synthase activity [4, 11] | inhibition at 30 µM [4, 11] | also measured |
| --- | --- | --- | --- | --- | --- | --- | --- | --- | --- | --- | --- | --- | --- | --- | --- | --- | --- | --- |
| C[C@H](O)[C@H](O)C1CNc2nc(N)nc(N)c2N1 (stereo partly drawn) [(I), 2,4-diamino-5,6,7,8-tetrahydro-6-(L-erythro-1,2-dihydroxylpropyl)pteridine] | 279 nmol/mg/min | 262 nmol/mg/min | 181 nmol/mg/min | 72 nmol/mg/min | 35 nmol/mg/min | 24 nmol/mg/min | – | 44% | 65% | 77% | 88% | about 20 -fold | about 2.5 -fold | 125 nmol/mg/min | 58% | 50 nmol/mg/min | 83% | IC50 [1]: 100 µM; IC50 (murine inducible NOS): 7 µM; IC50 (murine NIH-3T3; Mus musculus, NIH3T3, murine interferon-γ (250 U/ml) and LPS (1 μg/ml)): 13 µM; cellular toxicity (murine NIH-3T3; murine NIH-3T3, nitrite formation test): without apparent cellular toxicity; inhibition at 7.5 µM (murine 3T3 fibroblasts; Mus musculus, Fibroblast, 7.5 μM): 44%; NO synthase inhibitor potency compared with (III) (murine 3T3 fibroblasts; compared with (III)): more potent NO synthase inhibitor; specificity for NOSs (NOSs): highly specific for NOSs; IC50 ([4]; 10 μM tetrahydrobiopterin, rat neuronal NOS, read-out: IC50 (50% inhibitory concentration), inhibition of stimulation of NOSs by tetrahydrobiopterin): 1 µM; cytotoxicity (3T3 murine fibroblasts): no cytotoxicity; inhibition of phenylalanine-4-hydroxylase [5]: 30% |
